Laboratory results as given in patent US7148204B2, “Antisense modulation of bcl-x expression” (Isis Pharmaceuticala, Inc., priority 1998, dated 2006).
In the oligonucleotide strings, read from the 5' end, every base follows the letter of its sugar. An asterisk marks phosphorothioate; unmarked linkages are phosphodiester. Other units and linkages are bracketed, terminal groups are in braces. A string of capitals states the bases alone. e = 2'-O-(2-methoxyethyl) (MOE); [5mC] = 5-methylcytosine; d = 2'-deoxy (DNA)

Tests used:
Type in all cases: cell-based, human
[1] = tested on: bcl-xs mRNA; experiment: RNase protection assay, bcl-xs mRNA in A549 cells; design: concentration or dose not given beside the values; settings: RPA
Description: (§1) The ribonuclease (RNase) protection assay is a sensitive and specific method for quantitating expression levels (Zinn, et al., Cell, 1983, 34:865–79). The method is based on the hybridization of a target RNA to an in vitro transcribed ^32P-labeled anti-sense RNA probe from a DNA template. RNase treatment follows, resulting in degradation of single-stranded RNA and excess probe. The probe and target RNA are resolved by denaturing polyacrylamide gel electrophoresis with the “protected” probe visualized using autoradiography or beta imaging equipment. Template sets can be purchased (PharMingen Inc., San Diego Calif.) which contain a series of biologically relevant templates, each of distinct length and each representing a sequence in a distinct mRNA species. Each template set is capable of detecting up to 11 unique gene messages in a single reaction mix in addition to one or more housekeeping genes, L32 and GAPDH, which serve as internal controls. These template sets allow for multiple determinations to be made from a single sample. Multi-probe RPA can be performed on total RNA preparations derived by standard methods, without further purification of poly-A+ RNA.
(§2) Oligonucleotides were evaluated for their respective effects on bcl-xs and bcl-xl mRNA levels along with total bcl-x mRNA levels, using the RIBOQUANT™ RNase protection kit (Pharmingen, San Diego Calif.). All assays were performed according to manufacturer's protocols. Briefly, multi-probe DNA template sets were used to generate antisense RNA transcripts radiolabeled with […]. The template set used for apoptosis genes was the human hAPO-2 set. These radiolabeled probes were hybridized overnight with typically 10 μg of total cellular RNA. The reaction mixture was then digested with single-strand RNases to generate the protected fragments which were electrophoresed through a 5% acrylamide/urea gel. Protected bands were visualized and quantitated using a PhosphorImager (Molecular Dynamics, Sunnyvale Calif.).
(§3) Human bcl-x has two forms, a long form known as bcl-xl and a short form known as bcl-xs. […] The protein of bcl-xl is similar in size and structure to bcl-2, and could inhibit cell death upon growth factor withdrawal. The protein of bcl-xs is 63 amino acids shorter than bcl-xl. It could inhibit the bcl-2 function, thus promoting programmed cell death (apoptosis). Oligonucleotides were evaluated for their respective effects on bcl-xs and bcl-xl mRNA levels along with total bcl-x mRNA levels, using the RIBOQUANT™ RNase protection kit (Pharmingen, San Diego Calif.). All assays were performed according to manufacturer's protocols.

[2] = tested on: bcl-xl mRNA; experiment: RNase protection assay, bcl-xl mRNA in A549 cells; settings: RPA
Description: as §1, §2, §3
(§4) These oligonucleotides were tested for their inhibitory effects on bcl-xl and bcl-xs mRNA levels in A549 cells, as detected by RPA analysis. Oligonucleotide concentration was 200 nM.

[3] = tested on: total bcl-x mRNA; experiment: RNase protection assay, total bcl-x mRNA in A549 cells; design: % CONTROL total bcl-x: concentration or dose not given beside the values; settings: RPA
Description: as §1, §2, §3

[4] = tested on: bcl-xs/bcl-xl mRNA ratio; experiment: RNase protection assay, bcl-xs/bcl-xl mRNA ratio in A549 cells; settings: A549 cells, RPA; for bcl-xs/bcl-xl (%): no oligo 17.56; for bcl-xs/bcl-xl* (change from the control ratio 17.56) / bcl-xs/bcl-xl Fold difference: no oligo = 1; for bcl-xs/bcl-xl Fold difference: 200 nM
Description: as §1, §2, §3, §4

[5] = tested on: bcl-xs/bcl-xl transcript ratio; experiment: PNA analogs, bcl-x splicing in electroporated HeLa cells; settings: electroporation
Description: A peptide-nucleic acid (PNA) oligonucleotide having the ISIS 22783 sequence (SEQ ID NO: 33) was synthesized as described in Example 4 hereinabove. The oligonucleotide (ISIS 32262) was uniformly modified with a PNA backbone throughout. A 5-base mismatch compound (ISIS 32263, SEQ ID NO: 52) was also synthesized as a full PNA. HeLa cells were transfected with these compounds by electroporation with a 200V pulse using a BTX Electro Cell Manipulator 600 (Genetronics, San Diego Calif.) and RNA was isolated 24 hours later.

“16972 (antisense eT*e[5mC]*eA*e[5mC]*eG*dT*dT*dG*dG*dC*dG*dC*dT*dT*dA*eG*e[5mC]*e[5mC]*eA*eT) [compound 16972]” was tested, and the “% CONTROL bcl-xs” value [1] was 60%, the “% CONTROL bcl-xl” value [2] was 91% and the “% CONTROL total bcl-x” value [3] was 87%. For the same substance, the “bcl-xs/bcl-xl (%)” value [4] was 11.68% and the “bcl-xs/bcl-xl* (change from the control ratio 17.56)” value [4] was 0.67.

For “22783 (antisense e[5mC]*eT*eG*eG*eA*eT*e[5mC]*e[5mC]*eA*eA*eG*eG*e[5mC]*eT*e[5mC]*eT*eA*eG*eG*eT) [compound 22783]”, the “% CONTROL bcl-xs” value [1] was 620%, the “% CONTROL bcl-xl” value [2] was 35% and the “% CONTROL bcl-xl” value ([2]; 200 nM) was 39%. The “% CONTROL total bcl-x” value [3] was 120%, the “bcl-xs/bcl-xl Fold difference” value [4] was 18 fold and the “bcl-xs/bcl-xl (%)” value [4] was 293.10%. For the same substance, the “bcl-xs/bcl-xl* (change from the control ratio 17.56)” value [4] was 16.69.

In the case of “106257 (antisense AGGTAAGTGGCCATCCAAGC; all 2'-MOE, all phosphorothioate, methylation of C not given here) [compound 106257]”, the “% CONTROL bcl-xl” value ([2]; 200 nM) is reported as 78% and the “bcl-xs/bcl-xl Fold difference” value [4] is reported as 13 fold.

“23174 (antisense e[5mC]*e[5mC]*eG*eG*e[5mC]*e[5mC]*eA*e[5mC]*eA*eG*eT*e[5mC]*eA*eT*eG*e[5mC]*e[5mC]*e[5mC]*eG*eT) [compound 23174]” was tested, and the “% CONTROL bcl-xs” value [1] was 56%, the “% CONTROL bcl-xl” value [2] was 67% and the “% CONTROL total bcl-x” value [3] was 66%. For the same substance, the “bcl-xs/bcl-xl (%)” value [4] was 14.93% and the “bcl-xs/bcl-xl* (change from the control ratio 17.56)” value [4] was 0.85.

With “106259 (antisense AAGTGGCCATCCAAGCTGCG; all 2'-MOE, all phosphorothioate, methylation of C not given here) [compound 106259]” the “% CONTROL bcl-xl” value ([2]; 200 nM) was 96% and the “bcl-xs/bcl-xl Fold difference” value [4] was 15 fold.

In the case of “106260 (antisense GTGGCCATCCAAGCTGCGAT; all 2'-MOE, all phosphorothioate, methylation of C not given here) [compound 106260]”, the “% CONTROL bcl-xl” value ([2]; 200 nM) is reported as 66% and the “bcl-xs/bcl-xl Fold difference” value [4] is reported as 12 fold.

With “23172 (antisense eG*eT*eT*e[5mC]*e[5mC]*eT*eG*eG*e[5mC]*e[5mC]*e[5mC]*eT*eT*eT*e[5mC]*eG*eG*e[5mC]*eT*e[5mC]) [compound 23172]” the “% CONTROL bcl-xs” value [1] was 84%, the “% CONTROL bcl-xl” value [2] was 77% and the “% CONTROL total bcl-x” value [3] was 79%. The “bcl-xs/bcl-xl (%)” value [4] was 19.38% and the “bcl-xs/bcl-xl* (change from the control ratio 17.56)” value [4] was 1.10.

“106253 (antisense GGTCATTCAGGTAAGTGGCC; all 2'-MOE, all phosphorothioate, methylation of C not given here) [compound 106253]” was tested, and the “% CONTROL bcl-xl” value ([2]; 200 nM) was 48% and the “bcl-xs/bcl-xl Fold difference” value [4] was 19 fold.

In the case of “ISIS 32262: PNA oligonucleotide having the ISIS 22783 sequence (SEQ ID NO: 33), PNA backbone throughout (CTGGATCCAAGGCTCTAGGT; all peptide nucleic acid (PNA))”, the “Ratio (approx.) of bcl-xs/bcl-xl” value ([5]; 2 μM) is reported as roughly 2.0, the “Ratio (approx.) of bcl-xs/bcl-xl” value ([5]; 5 μM) is reported as roughly 3.5 and the “Ratio (approx.) of bcl-xs/bcl-xl” value ([5]; 10 μM) is reported as roughly 6.5. For the same substance, the “Ratio (approx.) of bcl-xs/bcl-xl” value ([5]; 15 μM) was roughly 7.75, the “Ratio (approx.) of bcl-xs/bcl-xl” value ([5]; 25 μM) was roughly 11.5 and the “Ratio (approx.) of bcl-xs/bcl-xl” value ([5]; RNA 24 hours later, 1 μM) was roughly 1.5.

With “106254 (antisense TCATTCAGGTAAGTGGCCAT; all 2'-MOE, all phosphorothioate, methylation of C not given here) [compound 106254]” the “% CONTROL bcl-xl” value ([2]; 200 nM) was 80% and the “bcl-xs/bcl-xl Fold difference” value [4] was 13 fold.

With “106252 (antisense GTGGTCATTCAGGTAAGTGG; all 2'-MOE, all phosphorothioate, methylation of C not given here) [compound 106252]” the “% CONTROL bcl-xl” value ([2]; 200 nM) was 72% and the “bcl-xs/bcl-xl Fold difference” value [4] was 23 fold.

For “26080 (antisense CTGGTTACACGACTCCAGGT; all 2'-MOE, all phosphorothioate, methylation of C not given here) [compound 26080]”, the “% CONTROL bcl-xl” value ([2]; 200 nM) was 77% and the “bcl-xs/bcl-xl Fold difference” value [4] was 2 fold.

“106251 (antisense AGGTGGTCATTCAGGTAAGT; all 2'-MOE, all phosphorothioate, methylation of C not given here) [compound 106251]” was tested, and the “% CONTROL bcl-xl” value ([2]; 200 nM) was 57% and the “bcl-xs/bcl-xl Fold difference” value [4] was 25 fold.

In the case of “ISIS 32263: 5-base mismatch compound, SEQ ID NO: 52, full PNA (CTGGTTACACGACTCCAGGT; all peptide nucleic acid (PNA)) [reference compound]”, the “Ratio (approx.) of bcl-xs/bcl-xl” value ([5]; 2 μM) is reported as roughly 0.75, the “Ratio (approx.) of bcl-xs/bcl-xl” value ([5]; 5 μM) is reported as roughly 0.75 and the “Ratio (approx.) of bcl-xs/bcl-xl” value ([5]; 10 μM) is reported as roughly 1.0. For the same substance, the “Ratio (approx.) of bcl-xs/bcl-xl” value ([5]; 15 μM) was roughly 0.75, the “Ratio (approx.) of bcl-xs/bcl-xl” value ([5]; 25 μM) was roughly 1.0 and the “Ratio (approx.) of bcl-xs/bcl-xl” value ([5]; RNA 24 hours later, 1 μM) was roughly 1.5.

For “106258 (antisense GTAAGTGGCCATCCAAGCTG; all 2'-MOE, all phosphorothioate, methylation of C not given here) [compound 106258]”, the “% CONTROL bcl-xl” value ([2]; 200 nM) was 66% and the “bcl-xs/bcl-xl Fold difference” value [4] was 21 fold.

For “26066 (antisense ATCCAAGGCTCTAGGTGGTC; all 2'-MOE, all phosphorothioate, methylation of C not given here) [compound 26066]”, the “% CONTROL bcl-xl” value ([2]; 200 nM) was 24% and the “bcl-xs/bcl-xl Fold difference” value [4] was 37 fold.

With “106250 (antisense CTAGGTGGTCATTCAGGTAA; all 2'-MOE, all phosphorothioate, methylation of C not given here) [compound 106250]” the “% CONTROL bcl-xl” value ([2]; 200 nM) was 40% and the “bcl-xs/bcl-xl Fold difference” value [4] was 21 fold.

“22782 (antisense e[5mC]*eA*eA*eA*eA*eG*eT*eA*eT*e[5mC]*e[5mC]*e[5mC]*eA*eG*e[5mC]*e[5mC]*eG*e[5mC]*e[5mC]*eG) [compound 22782]” was tested, and the “% CONTROL bcl-xs” value [1] was 64%, the “% CONTROL bcl-xl” value [2] was 76% and the “% CONTROL total bcl-x” value [3] was 75%. For the same substance, the “bcl-xs/bcl-xl (%)” value [4] was 15.72% and the “bcl-xs/bcl-xl* (change from the control ratio 17.56)” value [4] was 0.89.

For “22784 (antisense e[5mC]*e[5mC]*eA*eG*e[5mC]*e[5mC]*eG*e[5mC]*e[5mC]*eG*eT*eT*e[5mC]*eT*e[5mC]*e[5mC]*eT*eG*eG*eA) [compound 22784]”, the “% CONTROL bcl-xs” value [1] was 204%, the “% CONTROL bcl-xl” value [2] was 72% and the “% CONTROL total bcl-x” value [3] was 92%. For the same substance, the “bcl-xs/bcl-xl (%)” value [4] was 48.63% and the “bcl-xs/bcl-xl* (change from the control ratio 17.56)” value [4] was 2.77.

“106255 (antisense ATTCAGGTAAGTGGCCATCC; all 2'-MOE, all phosphorothioate, methylation of C not given here) [compound 106255]” was tested, and the “% CONTROL bcl-xl” value ([2]; 200 nM) was 64% and the “bcl-xs/bcl-xl Fold difference” value [4] was 17 fold.

With “23175 (antisense eT*eG*eT*eA*eG*e[5mC]*e[5mC]*e[5mC]*eA*eG*e[5mC]*eA*eG*eA*eA*e[5mC]*e[5mC]*eA*e[5mC]*eG) [compound 23175]” the “% CONTROL bcl-xs” value [1] was 52%, the “% CONTROL bcl-xl” value [2] was 82% and the “% CONTROL total bcl-x” value [3] was 78%. The “bcl-xs/bcl-xl (%)” value [4] was 11.44% and the “bcl-xs/bcl-xl* (change from the control ratio 17.56)” value [4] was 0.65.

“106249 (antisense CTCTAGGTGGTCATTCAGGT; all 2'-MOE, all phosphorothioate, methylation of C not given here) [compound 106249]” was tested, and the “% CONTROL bcl-xl” value ([2]; 200 nM) was 47% and the “bcl-xs/bcl-xl Fold difference” value [4] was 23 fold.

With “106256 (antisense TCAGGTAAGTGGCCATCCAA; all 2'-MOE, all phosphorothioate, methylation of C not given here) [compound 106256]” the “% CONTROL bcl-xl” value ([2]; 200 nM) was 82% and the “bcl-xs/bcl-xl Fold difference” value [4] was 15 fold.

“105751 (antisense TGGTTCTTACCCAGCCGCCG; all 2'-MOE, all phosphorothioate, methylation of C not given here) [compound 105751]” was tested, and the “% CONTROL bcl-xl” value ([2]; 200 nM) was 34% and the “bcl-xs/bcl-xl Fold difference” value [4] was 45 fold.
